Results reported in publication PMC11843585, “A drug-resistant β-lactamase variant changes the conformation of its active-site proton shuttle to alter substrate specificity and inhibitor potency” (The Journal of Biological Chemistry, 2025).
Several values for one entry are separate records, joined by “and”; a condition that tells them apart may be missing. Equal values may be shown once. Entries after “also recorded” stand apart in the source; their conditions may differ.

Key:
WT CTX-M-14 β-lactamase [1] = target: T1, WT CTX-M-14 β-lactamase (Escherichia coli, UniProt Q9L5C7); assay: Clavulanic acid inhibition (Ki, Morrison fit), WT enzyme; assay type: biochemical; settings: ampicillin (100 μM) as indicator substrate, 20 min preincubation
T1 construct: His6 (TEV-cleavable) (N, cleaved yes); made in house; host or cells: E. coli BL21(DE3), plasmid pET28a-CTX-M-14
Description: (§1) The Ki values for clavulanic acid inhibition of CTX-M-14 WT and variants were determined by mixing the enzymes with increasing concentrations of clavulanic acid in buffer containing 50 mM sodium phosphate (pH 7.0) and 1 μg/ml BSA and incubating at room temperature for 20 min. Enzyme activity was evaluated by monitoring the initial velocity of hydrolysis of 100 μM ampicillin using Beckman Coulter spectrophotometer model DU 800. The percentage activity was calculated by dividing the initial hydrolysis velocity for ampicillin in the presence of clavulanic acid by the velocity in the absence of clavulanic acid and plotted as a function of clavulanic acid concentration. The Ki values were obtained by fitting the data into Morrison equation using GraphPad Prism 5 ([55]).

[2] = target: T2, CTX-M-14 K234R β-lactamase (Escherichia coli, UniProt Q9L5C7, K237R); assay: Clavulanic acid inhibition (Ki, Morrison fit), K234R enzyme; assay type: biochemical; settings: ampicillin as indicator substrate, 20 min preincubation
T2 construct: His6 (TEV-cleavable) (N, cleaved yes); made in house; host or cells: E. coli BL21(DE3), pET28a-CTX-M-14 with K234R
Description: as §1

[3] = target: T3, CTX-M-14 S130A β-lactamase (Escherichia coli, UniProt Q9L5C7, S133A); assay: Clavulanic acid inhibition (Ki, Morrison fit), S130A enzyme; assay type: biochemical; settings: ampicillin as indicator substrate, 20 min preincubation
T3 construct: His6 (TEV-cleavable) (N, cleaved yes); made in house; host or cells: E. coli BL21(DE3)
Description: as §1

[4] = target: T4, CTX-M-14 S130A/K234R β-lactamase (Escherichia coli, UniProt Q9L5C7, K237R/S133A); assay: Clavulanic acid inhibition (Ki, Morrison fit), S130A/K234R enzyme; assay type: biochemical
T4 construct: His6 (TEV-cleavable) (N, cleaved yes); made in house; host or cells: E. coli BL21(DE3)
Description: as §1

[5] = target: T2, CTX-M-14 K234R β-lactamase; assay: Steady-state kinetics of β-lactam hydrolysis, K234R enzyme; assay type: biochemical; settings: for Km / kcat: 25 °C, pH 7.0
Description: (§2) Michaelis–Menten steady-state kinetic parameters of CTX-M-14 β-lactamases were determined on various β-lactam substrates. Wavelength and extinction coefficients used for detection were as follows: ampicillin, 235 nm, Δε = 900 M^−1 cm^−1; cephalothin, 262 nm, Δε = 7,660 M^−1 cm^−1; cefotaxime, 264 nm, Δε = 7,250 M^−1 cm^−1; nitrocefin, 482 nm, Δε = 15,000 M^−1 cm^−1; cefpodoxime, 235 nm, Δε = 1,023 M^−1 cm^−1; ceftriaxone, 241 nm, Δε = 2,046 M^−1 cm^−1. Enzymatic reactions were performed at 25 °C in buffer containing 50 mM sodium phosphate (pH 7.0) and 1 μg/ml BSA. Substrate hydrolysis was monitored by Beckman Coulter spectrophotometer model DU 800 (Beckman Coulter, Brea, CA, USA). Initial hydrolysis velocities of substrate were plotted as a function of concentrations and fitted into a Michaelis–Menten equation using GraphPad Prism 5 (GraphPad Software, San Diego, CA, USA) to obtain Km and kcat values. The kcat/Km values for the enzymes where kcat and Km could not be determined independently were estimated using the equation, ν = (kcat/Km)[E][S], where [S] ≪ Km ([54]).

[6] = target: T3, CTX-M-14 S130A β-lactamase; assay: Steady-state kinetics of β-lactam hydrolysis, S130A enzyme; assay type: biochemical; settings: for fold decrease in kcat / fold increase in Km: S130A compared with WT; for Km / kcat: S130A
Description: as §2

[7] = target: T4, CTX-M-14 S130A/K234R β-lactamase; assay: Steady-state kinetics of β-lactam hydrolysis, S130A/K234R enzyme; assay type: biochemical
Description: as §2

WT CTX-M-14 β-lactamase [8] = target: T1, WT CTX-M-14 β-lactamase; assay: Single-turnover stopped-flow kinetics, WT enzyme; assay type: biochemical
Description: (§3) Single-turnover kinetics experiments were used to determine the acylation rate for the CTX-M-14 WT and K234R enzymes. Kinetic measurements were carried out at 25 °C using a using a KinTek stopped-flow instrument. Protein concentrations used in this experiment exceed the substrate concentrations. To prepare sample injection, 1 ml of increasing concentrations of CTX-M-14 proteins and 1 ml of 2.5–5 μM cefotaxime were loaded into two separate drive syringes. 5 μM cefotaxime was used for single-turnover experiments with WT CTX-M-14, whereas 2.5 μM cefotaxime was used in experiments with the K234R enzyme. Data collection times were adjusted empirically. Absorbance at 264 nm was monitored after samples in two syringes were mixed. For each selected time period, 1,000 data points were collected, and at least three kinetic traces were obtained to ensure high-quality data. Kinetic data with various protein concentrations were fitted to a single-exponential function, At=A^(−kt)+C , to determine kobs, which was then used to determine k2 by fitting kobs as a function of enzyme concentration to a hyperbola, as has been reported previously for serine β-lactamases and serine proteases ([33], [34], [35]). The deacylation rate constant, k3, was calculated from the experimental values determined for kcat and k2, using the equation, kcat = k2 × k3/(k2 + k3). Solving the equation for kcat in terms of k3 gives k3 = (k2 × kcat)/(kcat − k2). The error in the calculated value of k3 was determined by propagating the errors in k2 and kcat through the equation by adding the absolute errors for the sum (difference) in the denominator to obtain the absolute and the percentage error in kcat − k2. The percentage error of the numerator, (kcat × k2), was calculated by adding the percentage error for kcat and k2, and the final percentage and absolute errors on k3 were then obtained by adding the percentage error of the numerator and denominator to yield the percentage error in k3.

[9] = target: T2, CTX-M-14 K234R β-lactamase; assay: Single-turnover stopped-flow kinetics, K234R enzyme; assay type: biochemical
Description: as §3, with “Kinetic data with various protein concentrations were fitted to a single-exponential function, At=A^(−kt)+C , to determine kobs, which was then used to determine k2 by fitting kobs as a function of enzyme concentration to a hyperbola, as has been reported previously for serine β-lactamases and serine proteases ([33], [34], [35]).” left out, “Solving the equation for kcat in terms of k3 gives k3 = (k2 × kcat)/(kcat − k2).” left out, “The percentage error of the numerator, (kcat × k2), was calculated by adding the percentage error for kcat and k2, and the final percentage and absolute errors on k3 were then obtained by adding the percentage error of the numerator and denominator to yield the percentage error in k3.” left out

CTX-M β-lactamases = settings: CTX-M versus TEM-1; cited from earlier work
PSE-4 β-lactamase = test system: PSE-4 β-lactamase; design: method as in PMID 11148033, PMID 9756758; settings: WT PSE-4; cited from earlier work
TEM-1 S130G β-lactamase = test system: TEM-1 S130G β-lactamase; design: method as in PMID 15981999; settings: cited from earlier work
TEM-1 β-lactamase K234T = test system: TEM-1 β-lactamase K234T; design: method as in PMID 1910040; settings: TEM-1 K234T versus TEM-1; cited from earlier work
[10] = test system: CC1(C)S[C@@H]2[C@H](NC(=O)[C@H](N)c3ccccc3)C(=O)N2[C@H]1C(=O)O; assay: Steady-state kinetics of β-lactam hydrolysis, WT enzyme; assay type: biochemical; settings: other: WT CTX-M-14, 25 °C, pH 7.0
Description: as §2

[11] = test system: CO/N=C(\C(=O)N[C@@H]1C(=O)N2C(C(=O)O)=C(COC(C)=O)CS[C@H]12)c1csc(N)n1; assay: as above; assay type: biochemical; settings: other: WT CTX-M-14, 25 °C, pH 7.0
Description: as §2

WT CTX-M-14 β-lactamase [12] = target: T1, WT CTX-M-14 β-lactamase; assay: as above; assay type: biochemical
Description: as §2

O=C(O)[C@H]1/C(=C/CO)O[C@@H]2CC(=O)N21 [Clav acid, Clavulanic acid]
Ki (WT CTX-M-14 β-lactamase [1]): 0.08 ± 0.001 µM | Ki [2]: 0.39 ± 0.02 µM | Ki [3]: 30 µM and 31 µM | Ki, fold above WT ([4]; S130A/K234R compared with WT): 3,500 fold | Ki ([4]; S130A/K234R, ampicillin as indicator substrate, 20 min preincubation): 270 ± 20 µM

CO/N=C(\C(=O)N[C@@H]1C(=O)N2C(C(=O)O)=C(COC(C)=O)CS[C@H]12)c1csc(N)n1 [Cefotaxime, cefotaxime]
fold decrease in Km ([5]; K234R compared with WT): 6 fold | fold decrease in kcat ([5]; K234R compared with WT): 500 fold | fold decrease in kcat/Km ([5]; K234R compared with WT): 80 fold | Km ([5]; K234R): 11 ± 4 µM | kcat ([5]; K234R): 0.2 ± 0.01 s⁻¹ | kcat ([5]; K234R, listed as cefotaxime): 0.2 s⁻¹ | k3 (deacylation rate), lower limit based on kcat ([5]; K234R, inferred from kcat): ≥ 0.2 s⁻¹ | fold decrease in kcat [6]: 1,000 fold | fold increase in Km [6]: 4 fold | Km ([6]; 25 °C, pH 7.0): 260 ± 13 µM | kcat ([6]; 25 °C, pH 7.0): 0.1 ± 0.003 s⁻¹ | fold reduction in kcat ([7]; S130A/K234R compared with K234R): 400 fold | fold reduction in kcat ([7]; S130A/K234R compared with S130A): 200 fold | Km ([7]; S130A/K234R, 25 °C, pH 7.0): 120 ± 17 µM | kcat ([7]; S130A/K234R, 25 °C, pH 7.0): 0.0005 ± 0.0001 s⁻¹ | k3 (deacylation rate) (WT CTX-M-14 β-lactamase [8]; calculated from k2 and kcat): 190 s^−1 and 190 ± 35 ^b s^−1 | Kd (WT CTX-M-14 β-lactamase [8]; fit of kobs from single turnover, read-out: KD (Ks, dissociation constant)): 74 ± 12 µM | k2 (acylation rate) (WT CTX-M-14 β-lactamase [8]; single turnover, 5 μM cefotaxime, 25 °C): 210 s⁻¹ and 210 ± 12 s⁻¹ | Kd ([9]; fit of kobs from single turnover): 42 ± 8 µM | k2 (acylation rate) ([9]; single turnover, 2.5 μM cefotaxime, 25 °C): 0.14 s⁻¹ and 0.14 ± 0.01 s⁻¹ | hydrolysis, fold faster than TEM-1 (CTX-M β-lactamases): ~1,000 fold | kcat, fold lower than for ampicillin hydrolysis (PSE-4 β-lactamase): ~2,000 fold

CC1(C)S[C@@H]2[C@H](NC(=O)[C@H](N)c3ccccc3)C(=O)N2[C@H]1C(=O)O [Ampicillin, ampicillin]
change in kcat/Km (catalytic efficiency), in words ([5]; K234R compared with WT): unchanged; also recorded: only modestly changed | fold increase in Km ([5]; K234R compared with WT): 9 fold | fold increase in kcat ([5]; K234R compared with WT): 5 fold | fold increase in acylation rate ([5]; K234R compared with WT, inferred from kcat): at least 5 fold | Km ([5]; K234R): 1050 µM | kcat ([5]; K234R): 330 ± 33 s⁻¹ | kcat ([5]; K234R, listed as ampicillin): 330 s⁻¹ | k2 (acylation rate), lower limit based on kcat ([5]; K234R, inferred from kcat): ≥ 330 s⁻¹ | k3 (deacylation rate), lower limit based on kcat ([5]; K234R, inferred from kcat): ≥ 330 s⁻¹ | Km [6]: 30000 µM | fold decrease in kcat [6]: 2 fold | fold increase in Km [6]: 260 fold | Km ([6]; 25 °C, pH 7.0): 30700 µM | kcat ([6]; 25 °C, pH 7.0): 30 ± 2 s⁻¹ | Km ([7]; S130A/K234R, too high to measure): > 30000 µM | fold reduction in hydrolysis (TEM-1 S130G β-lactamase): 10 fold

CC1(C)S[C@@H]2[C@H](NC(=O)Cc3ccccc3)C(=O)N2[C@H]1C(=O)O [benzylpenicillin]
fold increase in Km (TEM-1 β-lactamase K234T): 50 fold | fold reduction in kcat (TEM-1 β-lactamase K234T): ~50 fold

WT CTX-M-14 β-lactamase (Escherichia coli)
Km [10]: 120 ± 10 µM | kcat [10]: 67 ± 3 s⁻¹ | kcat/Km [10]: 560000 ± 20000 M⁻¹ s⁻¹ | Km [11]: 66 ± 3 µM | kcat [11]: 100 ± 1 s⁻¹ | kcat/Km [11]: 1.5e+06 ± 100000 M⁻¹ s⁻¹

CO/N=C(\C(=O)N[C@@H]1C(=O)N2C(C(=O)O)=CCS[C@H]12)c1csc(N)n1 [ceftizoxime]
Km, fold higher than for cefotaxime (WT CTX-M-14 β-lactamase [12]): 45 fold | kcat, fold higher than for cefotaxime (WT CTX-M-14 β-lactamase [12]): 2 fold | kcat/Km, fold lower than for cefotaxime (WT CTX-M-14 β-lactamase [12]): 20 fold | fold decrease in Km ([5]; K234R compared with WT): 8 fold | fold decrease in kcat ([5]; K234R compared with WT): 320 fold | fold decrease in kcat/Km ([5]; K234R compared with WT): 40 fold

CO/N=C(\C(=O)N[C@@H]1C(=O)N2C(C(=O)O)=C(CSc3nc(=O)c(=O)[nH]n3C)CS[C@H]12)c1csc(N)n1 [ceftriaxone]
fold decrease in Km ([5]; K234R compared with WT): 2 fold | fold decrease in kcat ([5]; K234R compared with WT): 400 fold | fold decrease in kcat/Km ([5]; K234R compared with WT): 170 fold

COCC1=C(C(=O)O)N2C(=O)[C@@H](NC(=O)/C(=N\OC)c3csc(N)n3)[C@H]2SC1 [cefpodoxime]
fold decrease in Km ([5]; K234R compared with WT): 9 fold | fold decrease in kcat ([5]; K234R compared with WT): 430 fold | fold decrease in kcat/Km ([5]; K234R compared with WT): 50 fold

CC(=O)OCC1=C(C(=O)O)N2C(=O)[C@@H](NC(=O)Cc3cccs3)[C@H]2SC1 [cephalothin]
kcat, fold higher than for cefotaxime (WT CTX-M-14 β-lactamase [12]): ~7 fold | kcat/Km, fold higher than for cefotaxime (WT CTX-M-14 β-lactamase [12]): ~3 fold | fold decrease in Km ([5]; K234R compared with WT): 20 fold | fold decrease in kcat ([5]; K234R compared with WT): 100 fold | fold decrease in kcat/Km ([5]; K234R compared with WT): 6 fold
